{"source": "patent US11072634B2", "about": "“Inhibitors of transglutaminases” (Zedira GmbH, priority 2016, dated 2021)", "data": [{"target": "T1, recombinant human tissue transglutaminase (rhTG2) (Homo sapiens, UniProt P21980)", "T1 construct": "purchased Zedira 1022 (so in the source); T022)", "T1 sequence (P21980 1-687)": "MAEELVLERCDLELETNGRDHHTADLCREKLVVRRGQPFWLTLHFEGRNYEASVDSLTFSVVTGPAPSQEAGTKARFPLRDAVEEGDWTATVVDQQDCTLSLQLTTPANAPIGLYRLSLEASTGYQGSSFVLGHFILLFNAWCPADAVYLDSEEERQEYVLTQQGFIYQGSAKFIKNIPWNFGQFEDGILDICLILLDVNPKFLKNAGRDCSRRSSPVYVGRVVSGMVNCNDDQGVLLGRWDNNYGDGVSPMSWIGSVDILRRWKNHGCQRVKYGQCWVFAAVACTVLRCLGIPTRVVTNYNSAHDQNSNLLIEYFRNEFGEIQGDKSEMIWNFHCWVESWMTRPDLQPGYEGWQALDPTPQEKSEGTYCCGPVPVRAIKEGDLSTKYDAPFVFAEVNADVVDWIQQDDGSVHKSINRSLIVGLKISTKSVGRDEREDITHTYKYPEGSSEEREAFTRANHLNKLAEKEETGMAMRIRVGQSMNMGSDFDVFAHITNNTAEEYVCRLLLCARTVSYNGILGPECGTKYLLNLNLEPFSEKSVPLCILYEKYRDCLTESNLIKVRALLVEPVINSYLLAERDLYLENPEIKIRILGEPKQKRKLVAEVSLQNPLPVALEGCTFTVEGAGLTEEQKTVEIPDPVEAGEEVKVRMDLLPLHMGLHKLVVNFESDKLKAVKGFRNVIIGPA", "test": "Inhibition of rec. human tissue transglutaminase (fluorescence, Abz-APE(CAD-DNP)QEA-OH)", "format": "biochemical", "conditions": "Table 2, TG2 inhibitors", "procedure": "Method for Inhibition Studies of Rec. Human Tissue Transglutaminase (rhTG2)\n250 μg lyophilized His-tagged recombinant human tissue transglutaminase (His6-rhTG2, Zedira product 1022) is reconstituted in H2O (volume depends on original volume before lyophilization) resulting in a buffer containing 10 mM Tris-HCl, 150 mM NaCl, 1 mM EDTA, 5 mM DTT, 189 mg/ml maltodextrin, pH=8.1. The rhTG2 stock solution is diluted in buffer (50 mM Tris-HCl, 7.5 mM CaCl2, 150 mM NaCl, pH=7.4) to give a working solution of 100 U/ml (based on the amine-incorporation activity measured using T036, described below).\nA 10 mM inhibitor stock solution is prepared in DMSO, and from this stock solution a serial 1:2-fold dilution series is prepared, also in DMSO. Each of these initial dilutions is subsequently diluted 1:50-fold with buffer (50 mM Tris-HCl, 7.5 mM CaCl2, 150 mM NaCl, pH=7.4) to yield the final working dilutions containing 2% (v/v) DMSO. 15 μl of inhibitor working dilution are added per well of a 96 well microtiter plate. As control, 15 μl of a 2% (v/v) DMSO solution prepared using the buffer mentioned above are added per well.\n600 μl of His6-rhTG2 working solution are added to 11.4 ml assay buffer (50 mM Iris-HCl, 7.5 mM CaCl2, 150 mM NaCl, 5 mM DTI, 13.4 mM glycine methylester, 50 μM Abz-APE(CAD-DNP)QEA-OH, (Zedira product A102; patent No.: EP 1781807B1), pH=7.4). From this master-mix solution, 285 μl are added per well containing the inhibitor. Increase in fluorescence is measured using λex=313 nm and λem=418 nm at 37° C. for 20 min. A slope of the increase in fluorescence between 10 and 20 min is calculated for determination of the IC50 value (inhibitor concentration at which 50% of the initial TG2 activity is blocked).\nAnalysis of enzymatic activity is performed by calculation of the slope of an increase in fluorescence intensity. IC50 values are calculated by plotting the enzymatic activity (as percentage from control containing 2% DMSO instead of inhibitor) against the inhibitor concentration. IC50 is defined as the inhibitor concentration blocking 50%) of initial enzyme activity.", "units": {"IC50": "nM"}, "values": [{"smiles": "CCC(CC)CNC(=O)Cn1cc(Br)cc(NC(=O)[C@H](CCC(=O)C(=O)NC)NC(=O)c2cncn2C)c1=O", "note": "[Compound E46, (S)—N1-(5-bromo-1-(2-(2-ethylbutylamino)-2-oxoethyl)-2-oxo-1,2-dihydropyridin-3-yl)-N6-methyl-2-(1-methyl-1H-imidazole-5-carboxamido)-5-oxohexanediamide]", "IC50": 95}, {"smiles": "CCC(CC)CNC(=O)Cn1cc(C(F)(F)F)cc(NC(=O)[C@H](CCC(=O)C(=O)NC)NC(=O)c2cncn2C)c1=O", "note": "[Compound E47, (S)—N1-(1-(2-(2-ethylbutylamino)-2-oxoethyl)-2-oxo-5-(trifluoromethyl)-1,2-dihydropyridin-3-yl)-N6-methyl-2-(1-methyl-1H-imidazole-5-carboxamido)-5-oxohexanediamide]", "IC50": 80}, {"smiles": "CCN(CC)C(=O)Cn1cccc(NC(=O)[C@H](CCC(=O)C(=O)NC)NC(=O)c2cncn2C)c1=O", "note": "[Compound E50, (S)—N1-(1-(2-(diethylamino)-2-oxoethyl)-2-oxo-1,2-dihydropyridin-3-yl)-N6-methyl-2-(1-methyl-1H-imidazole-5-carboxamido)-5-oxohexanediamide]", "IC50": 300}, {"smiles": "CNC(=O)C(=O)CC[C@H](NC(=O)c1cncn1C)C(=O)Nc1cccn(CC(=O)NS(C)(=O)=O)c1=O", "note": "[Compound E51, (S)—N1-methyl-5-(1-methyl-1H-imidazole-5-carboxamido)-N6-(1-(2-(methylsulfonamido)-2-oxoethyl)-2-oxo-1,2-dihydropyridin-3-yl)-2-oxohexanediamide]", "IC50": 760}, {"smiles": "CCOC(=O)Cn1cccc(NC(=O)[C@H](CCC(=O)C(=O)NC)NC(=O)c2cncn2C)c1=O", "note": "[Compound E52, (S)-ethyl 2-(3-(2-(1-methyl-1H-imidazole-5-carboxamido)-6-(methylamino)-5,6-dioxohexanamido)-2-oxopyridin-1(2H)-yl)acetate]", "IC50": 500}, {"smiles": "CNC(=O)C(=O)CC[C@H](NC(=O)c1cncn1C)C(=O)Nc1cccn(CC(=O)OCCOC)c1=O", "note": "[Compound E53, (S)-2-methoxyethyl 2-(3-(2-(1-methyl-1H-imidazole-5-carboxamido)-6-(methylamino)-5,6-dioxohexanamido)-2-oxopyridin-1(2H)-yl)acetate]", "IC50": 750}, {"smiles": "CNC(=O)C(=O)CC[C@H](NC(=O)c1cncn1C)C(=O)Nc1cccn(CC(=O)NCOC)c1=O", "note": "[Compound E54, (S)—N1-(1-(2-(methoxymethylamino)-2-oxoethyl)-2-oxo-1,2-dihydropyridin-3-yl)-N6-methyl-2-(1-methyl-1H-imidazole-5-carboxamido)-5-oxohexanediamide]", "IC50": 550}, {"smiles": "CNC(=O)C(=O)CC[C@H](NC(=O)c1cncn1C)C(=O)Nc1cccn(CC(=O)NCN(C)C)c1=O", "note": "[Compound E55, (S)-N1-(1-(2-((dimethylamino)methylamino)-2-oxoethyl)-2-oxo-1,2-dihydropyridin-3-yl)-N6-methyl-2-(1-methyl-1H-imidazole-5-carboxamido)-5-oxohexanediamide]", "IC50": 200}, {"smiles": "CCS(=O)(=O)NC(=O)Cn1cccc(NC(=O)[C@H](CCC(=O)C(=O)NC)NC(=O)c2cncn2C)c1=O", "note": "[Compound E56, (S)—N1-(1-(2-(ethylsulfonamido)-2-oxoethyl)-2-oxo-1,2-dihydropyridin-3-yl)-N6-methyl-2-(1-methyl-1H-imidazole-5-carboxamido)-5-oxohexanediamide]", "IC50": 850}, {"smiles": "CCC(CC)CNC(=O)Cn1cccc(NC(=O)[C@H](CCC(=O)C(=O)NC)NC(=O)OC(C)(C)C)c1=O", "note": "[Compound E58, (S)-tert-butyl 1-(1-(2-(2-ethylbutylamino)-2-oxoethyl)-2-oxo-1,2-dihydropyridin-3-ylamino)-6-(methylamino)-1,5,6-trioxohexan-2-ylcarbamate]", "IC50": 280}, {"smiles": "CCC(CC)CNC(=O)Cn1cccc(NC(=O)[C@H](CCC(=O)C(=O)NC)NC(=O)CCC(=O)O)c1=O", "note": "[Compound E59, (S)-4-(1-(1-(2-(2-ethylbutylamino)-2-oxoethyl)-2-oxo-1,2-dihydropyridin-3-ylamino)-6-(methylamino)-1,5,6-trioxohexan-2-ylamino)-4-oxobutanoic acid]", "IC50": 625}, {"smiles": "CCC(CC)CNC(=O)Cn1cccc(NC(=O)[C@H](CCC(=O)C(=O)NC)NC(=O)[C@@H]2CC(=O)CN2)c1=O", "note": "[Compound E60, (S)—N1-(1-(2-(2-ethylbutylamino)-2-oxoethyl)-2-oxo-1,2-dihydropyridin-3-yl)-N6-methyl-5-oxo-2-((S)-4-oxopyrrolidine-2-carboxamido)hexanediamide]", "IC50": 60}, {"smiles": "CCC(CC)CNC(=O)Cn1cccc(NC(=O)[C@H](CCC(=O)C(=O)NC)NC(=O)c2ccoc2)c1=O", "note": "[Compound E61, (S)—N1-(1-(2-(2-ethylbutylamino)-2-oxoethyl)-2-oxo-1,2-dihydropyridin-3-yl)-2-(furan-3-carboxamido)-N6-methyl-5-oxohexanediamide]", "IC50": 80}, {"smiles": "CCC(CC)CNC(=O)Cn1cccc(NC(=O)[C@H](CCC(=O)C(=O)NC)NC(=O)c2cnco2)c1=O", "note": "[Compound E62, (S)—N1-(1-(2-(2-ethylbutylamino)-2-oxoethyl)-2-oxo-1,2-dihydropyridin-3-yl)-N6-methyl-2-(oxazole-5-carboxamido)-5-oxohexanediamide]", "IC50": 70}, {"smiles": "CCC(CC)CNC(=O)Cn1cccc(NC(=O)[C@H](CCC(=O)C(=O)NC)NC(=O)C2CCN(C)CC2)c1=O", "note": "[Compound E63, (S)—N1-(1-(2-(2-ethylbutylamino)-2-oxoethyl)-2-oxo-1,2-dihydropyridin-3-yl)-N6-methyl-2-(1-methylpiperidine-4-carboxamido)-5-oxohexanediamide]", "IC50": 80}, {"smiles": "CCC(CC)CNC(=O)Cn1cccc(NC(=O)[C@H](CCC(=O)C(=O)NC)NC(=O)c2cncnc2)c1=O", "note": "[Compound E64, (S)—N1-(1-(2-(2-ethylbutylamino)-2-oxoethyl)-2-oxo-1,2-dihydropyridin-3-yl)-N6-methyl-5-oxo-2-(pyrimidine-5-carboxamido)hexanediamide]", "IC50": 95}, {"smiles": "CCC(CC)CNC(=O)Cn1cccc(NC(=O)[C@H](CCC(=O)C(=O)NC)NC(=O)c2cnc3ccccc3n2)c1=O", "note": "[Compound E65, (S)—N1-(1-(2-(2-ethylbutylamino)-2-oxoethyl)-2-oxo-1,2-dihydropyridin-3-yl)-N6-methyl-5-oxo-2-(quinoxaline-2-carboxamido)hexanediamide]", "IC50": 65}, {"smiles": "CCC(CC)CNC(=O)Cn1cccc(NC(=O)[C@H](CCC(=O)C(=O)NC)NS(=O)(=O)c2sc(C)nc2C)c1=O", "note": "[Compound E66, (S)-2-(2,4-dimethylthiazole-5-sulfonamido)-N1-(1-(2-(2-ethylbutylamino)-2-oxoethyl)-26 oxo-1,2-dihydropyridin-3-yl)-N6-methyl-5-oxohexanediamide]", "IC50": 120}, {"smiles": "CCC(CC)CNC(=O)Cn1cccc(NC(=O)[C@H](CCC(=O)C(=O)NC)NS(=O)(=O)c2c(Cl)nc3sccn23)c1=O", "note": "[Compound E67, (S)-2-(6-chloroimidazo[2,1-b]thiazole-5-sulfonamido)-N1-(1-(2-(2-ethylbutylamino)-2-oxoethyl)-2-oxo-1,2-dihydropyridin-3-yl)-N6-methyl-5-oxohexanediamide]", "IC50": 150}, {"smiles": "CCC(CC)CNC(=O)Cn1cccc(NC(=O)[C@H](CCC(=O)C(=O)NC)NS(=O)(=O)c2nccn2C)c1=O", "note": "[Compound E68, (S)—N1-(1-(2-(2-ethylbutylamino)-2-oxoethyl)-2-oxo-1,2-dihydropyridin-3-yl)-N6-methyl-2-(1-methyl-1H-imidazole-2-sulfonamido)-5-oxohexanediamide]", "IC50": 150}]}]}
